Measurements reported in US20090123420A1, “Regulation of T Cell-Mediated Immunity by D Isomers of Inhibitors of Indoleamine-2,3-Dioxygenase” (Medical College of Georgia Research Institute, Inc, priority 2003, published 2009).
“Also recorded” adds a separate entry of the source. No end group written: not given here.

Tests used:
B16F10 melanomas = experiment: Established B16F10 melanoma model, 1MT with radiation or cyclophosphamide; assay type: in vivo, mouse; conditions: for effect on tumor growth, 1MT alone: established tumor, treatment from day 7, SQ pellets
Experimental: FIGS. 11A-11D. Administration of 1-MT enhances immune-mediated host anti-tumor effect when administered with radiation or cyclophosphamide. Mice were injected subcutaneously (SQ) with 4×10^4 B16F10 cells. […] Control mice received vehicle pellets without drug.
Mouse tumor models. C57BL/6 mice (Jackson, Bar Harbor, Me.) were implanted with tumors in the anteriomedial thigh, using either 4×10^4 B16F10 (ATCC, Bethesda, Md.) or 1×10^6 B78H1•GM-CSF. B78H1•GM-CSF cells recruit large numbers of APCs (Dranoff et al., Proc. Natl. Acad. Sci. USA, 1993; 90:3539) and were originally designed as a vaccine strategy. GMCSF-transfected tumors are immunogenic if lethally irradiated prior to injection (Borrello et al., Hum. Gene Ther., 1999; 10:1983), but live tumors grow progressively and create systemic tolerance to tumor antigens (Bronte et al., J. Immunol., 1999; 162:5728). Thus, B78H1•GM-CSF represented an excellent model for our studies, since it recruited many DCs but nevertheless […]. Tumors were 10-12 days after implantation, well prior to the stage of large, metastatic tumors (day 21) in which the hosts began to show alteration in spleen and non-tumor-draining LNs.
Not unexpected, given that the tumor had already been allowed to create tolerance in the host.

[1] = Pilot tissue biodistribution of D and L isomers after DL racemic mixture; assay type: in vivo, mouse; conditions: DL racemic mixture 10 mg/day SQ pellets, 72 hour infusion
Source text: The results noted with spleen are particularly relevant because it is a lymphoid organ, and thus likely to be similar to tumor-draining lymph nodes.

[2] = Comparative plasma pharmacokinetics of the stereo-isomers of 1-MT; assay type: in vivo, mouse
Experimental: Studies were conducted in conventional mice after IV, PO and SC doses of 50 mg/kg, and IP doses of 25 mg/kg, 50 mg/kg, and 100 mg/kg.

[3] = test system: Lewis Lung carcinoma (LLC); conditions: mouse, in vivo; cited from earlier work
IDO [4] = experiment: Recall MLR of primed recipient LN cells with 1MT added to the MLR; assay type: cell-based, mouse; conditions: responders from recipients of TDLN DCs
P815 with IDO = conditions: concomitant administration; cited from earlier work
IDO [5] = molecular target: IDO (Homo sapiens, UniProt P14902); experiment: Allogeneic mixed-leukocyte reaction (MLR) with IDO-expressing human monocyte-derived DCs, T cell proliferation by thymidine incorporation; conditions: 250 uM in culture medium
Experimental: Replicate MLRs received each compound at the concentrations shown. Bars represent T cell proliferation at the end of the 5-day activation period.
After 5 days, proliferation was measured by 4 hour thymidine incorporation assay. “V”-bottom culture wells (Nunc) were used in MLR assays to maximize cell-cell contact.
DCs were used as stimulators in allogeneic mixed-leukocyte reactions (MLRs), with allogeneic lymphocytes as responder cells.

IDO [6] = molecular target: IDO (Mus musculus, UniProt P28776); experiment: MLR with sorted tumor-draining lymph node (TDLN) cells as stimulators and BM3 responder T cells; conditions: 10x
Experimental: T cell activation in MLR. BM3 responder T cells were prepared from spleen by nylon-wool enrichment. Stimulators (sorted DCs or unfractionated TDLN) were mixed with 1×10^5 BM3 responder cells in 200 ul IMDM at the ratios shown in each figure. After 3 days, proliferation was measured by 4-hour thymidine incorporation assay.
MLRs were thus “two-way” reactions. However, the small number of sorted DCs used as stimulators contributed negligible proliferation compared to the large population of TCR-transgenic responder cells. Since the relevant readout was dominant suppression, the two-way MLR design presented no problem in interpretation.
Pooled draining LN cells (4 nodes) were stained and fractionated by 4-color MoFlo cell sorting for the two populations shown in the schematic of FIG. 5B. All other cells were collected in a third fraction. Each fraction was then used as stimulators in MLRs, using 50,000 BM3 T cells as responders. The number of stimulators used in each MLR was adjusted to be the same as would have been present in 50,000 cells of the original LN preparation, based on the measured percentage of each sorted fraction. Thus, 500 cells of the sorted B220^+ CD11c^+ fraction were added per well, and 1500 cells of the CD25^+ CD4^+ fraction, while 48,000 cells of the “all other” fraction were used.

[7] = molecular target: rabbit polyclonal anti-human IDO antibody (raised against the KLH-conjugated peptide of SEQ ID NO:1, affinity purified); experiment: flow cytometry of IFNγ-activated monocyte-derived macrophages; anti-IDO antibody pre-adsorbed with the immunizing peptide, which competes with IDO

Sequence of IDO (Mus musculus, UniProt P28776) (P28776 whole entry): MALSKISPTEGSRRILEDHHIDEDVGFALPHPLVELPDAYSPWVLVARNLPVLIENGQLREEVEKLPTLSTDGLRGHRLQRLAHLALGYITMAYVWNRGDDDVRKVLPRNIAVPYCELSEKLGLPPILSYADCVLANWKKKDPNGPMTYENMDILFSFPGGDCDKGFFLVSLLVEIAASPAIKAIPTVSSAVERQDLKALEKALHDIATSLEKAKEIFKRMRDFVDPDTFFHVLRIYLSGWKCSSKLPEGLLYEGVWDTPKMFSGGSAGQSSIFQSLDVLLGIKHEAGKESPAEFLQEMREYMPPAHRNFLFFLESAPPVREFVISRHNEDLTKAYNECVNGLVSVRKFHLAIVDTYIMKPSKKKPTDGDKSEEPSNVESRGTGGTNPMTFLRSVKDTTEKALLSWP
Sequence of IDO (Homo sapiens, UniProt P14902) (P14902 whole entry): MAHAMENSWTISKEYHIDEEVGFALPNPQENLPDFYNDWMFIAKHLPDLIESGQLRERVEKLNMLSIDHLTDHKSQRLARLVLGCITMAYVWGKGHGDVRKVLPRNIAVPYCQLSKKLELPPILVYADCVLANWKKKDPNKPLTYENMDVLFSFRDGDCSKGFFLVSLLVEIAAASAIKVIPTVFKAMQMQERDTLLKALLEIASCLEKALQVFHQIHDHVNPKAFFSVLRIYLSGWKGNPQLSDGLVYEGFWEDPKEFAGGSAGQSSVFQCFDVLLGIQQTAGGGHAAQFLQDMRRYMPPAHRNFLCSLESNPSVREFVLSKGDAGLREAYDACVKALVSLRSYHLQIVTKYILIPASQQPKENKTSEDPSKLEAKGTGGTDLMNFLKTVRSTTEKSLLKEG

In the case of Cn1cc(CC(N)C(=O)O)c2ccccc21 (racemic) [DL racemic form of 1MT, reference compound], the “tumor growth, 1MT with cyclophosphamide” value (B16F10 melanomas; 20 mg per mouse per day DL racemic, cyclophosphamide 150 mg/kg x 1 dose) is reported as “significantly reduce tumor growth”, the “tumor growth, 1MT with radiation” value (B16F10 melanomas; 20 mg per mouse per day DL racemic, total-body radiation 500 cGy single dose) is reported as “significantly reduce tumor growth” and the “effect on tumor growth, 1MT alone” value (B16F10 melanomas) is reported as “no effect”.

In the case of Cn1cc(C[C@@H](N)C(=O)O)c2ccccc21 [1-methyl-D-tryptophan], the “anti-tumor effect of combination with radiation” value (B16F10 melanomas; replicate radiation studies) is reported as “enhanced effect over radiation alone”, the “accumulation in liver, D versus L isomer” value [1] is reported as “at least equal, and possibly preferential, accumulation” and the “distribution into muscle and spleen, D versus L isomer” value [1] is reported as “equivalent distribution”. For the same molecule, the “levels in plasma and in brain, D versus L isomer” value [1] was “lower levels”, the “apparent volume of distribution” value ([2]; D versus L isomer) was “relatively greater” and the bioavailability ([2]; mouse, plasma, po, 50 mg/kg) was 64%.

For Cn1cc(C[C@H](N)C(=O)O)c2ccccc21 [1MT, 1-methyl-tryptophan], the “effect of 1MT over cyclophosphamide alone in immunodeficient hosts” value (B16F10 melanomas; RAG1-knockout hosts) is listed as “no enhancing effect”, the “effect on tumor growth, 1MT alone” value (B16F10 melanomas) is listed as “no effect” and the tumor outgrowth [3] is listed as “significantly delayed tumor outgrowth”. For the same molecule, the “suppression in recall MLRs” value (IDO [4]) was “no effect; also recorded: not restored” and the “IDO-mediated prevention of tumor rejection by pre-immunized hosts” value (P815 with IDO) was “substantially reversed”.

In the case of Cn1cc(C[C@H](N)C(=O)O)c2ccccc21 [L 1-MT, reference compound], the oral bioavailability ([2]; PO) is reported as 105%.

In the case of N[C@@H](Cc1c[nH]c2ccccc12)C(=O)O [L-tryptophan], the “DC-mediated inhibition of T cell proliferation with supra-physiologic tryptophan” value (IDO [5]) is reported as “completely reversed”, the “suppression by pDCs with excess L-tryptophan” value (IDO [6]; 250 uM, IDO-sufficient host) is reported as “abrogated; also recorded: abrogates suppression” and the “effect of excess L-tryptophan with IDO-knockout pDCs” value (IDO [6]; TDLN cells from IDO-knockout mice) is reported as “no effect”.

In the case of LIESGQLRERVEKLNMLC (also: conjugated to keyhole limpet carrier protein for immunisation) [immunizing peptide … (SEQ ID NO:1), based on human IDO], the reduction of flow cytometry signal [7] is reported as greater than 95%.
